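Five concentrations, 48 hours, 96-well plates. Abbreviation: GI50, concentration required for 50% inhibition of growth. Definition used: TGI = concentration required for complete inhibition of growth.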
Tests used:
Assay in all cases: NCI tumour cell line growth inhibition, 48 h
[1] = system: 786-0 renal
[2] = system: A498 renal
[3] = system: A549 NSCLC
[4] = system: ACHN renal
[5] = system: BT-549 breast
[6] = system: CAKI-1 renal
[7] = system: CCRF-CEM leukemia
[8] = system: COLO 205 colon
[9] = system: DU-145 prostate
[10] = system: EKVX NSCLC
[11] = system: HCC-2998 colon
[12] = system: HCT-116 colon
[13] = system: HCT-15 colon
[14] = system: HL-60(TB) leukemia
[15] = system: HOP-62 NSCLC
[16] = system: HOP-92 NSCLC
[17] = system: HS 578T breast
[18] = system: HT29 colon
[19] = system: IGROV1 ovarian
[20] = system: K-562 leukemia
[21] = system: KM12 colon
[22] = system: LOX IMVI melanoma
[23] = system: M14 melanoma
[24] = system: MALME-3M melanoma
[25] = system: MCF7 breast
[26] = system: MDA-MB-231 breast
[27] = system: MDA-MB-435
[28] = system: MOLT-4 leukemia
[29] = system: NCI-H226 lung
[30] = system: NCI-H23 lung
[31] = system: NCI-H460 lung
[32] = system: NCI-H522 lung
[33] = system: NCI/ADR-RES ovarian
[34] = system: OVCAR-3 ovarian
[35] = system: OVCAR-4 ovarian
[36] = system: OVCAR-5 ovarian
[37] = system: OVCAR-8 ovarian
[38] = system: PC-3 prostate
[39] = system: RPMI-8226 leukemia
[40] = system: RXF 393 renal
[41] = system: SF-268 CNS
[42] = system: SF-295 CNS
[43] = system: SF-539 CNS
[44] = system: SK-MEL-2 melanoma
[45] = system: SK-MEL-28 melanoma
[46] = system: SK-MEL-5 melanoma
[47] = system: SK-OV-3 ovarian
[48] = system: SN12C renal
[49] = system: SNB-19 CNS
[50] = system: SNB-75 CNS
[51] = system: SR leukemia
[52] = system: SW-620 colon
[53] = system: T-47D breast
[54] = system: TK-10 renal
[55] = system: U251 CNS
[56] = system: UACC-257 melanoma
[57] = system: UACC-62 melanoma
[58] = system: UO-31 renal

`Clc1ccc(CCC(Cn2ccnc2)Sc2c(Cl)cccc2Cl)cc1` (stereo unspecified) gave a GI50 [1] of 3.49 µM, a TGI [1] of 12.4 µM and a GI50 [2] of 1.59 µM. The TGI [2] was 6.66 µM, the GI50 [3] was 3.5 µM and the TGI [3] was 14.5 µM. It also gave a GI50 [4] of 4.32 µM, a TGI [4] of 15.1 µM and a GI50 [5] of 4.3 µM. For the same compound, the TGI [5] was 15.1 µM, the GI50 [6] was 2.6 µM and the TGI [6] was 10.5 µM. The GI50 [7] was 3.4 µM, the TGI [7] was 14.1 µM and the GI50 [8] was 3.14 µM. The TGI [8] was 11.1 µM, the GI50 [9] was 5.05 µM and the TGI [9] was 16.8 µM. The GI50 [10] was 2.64 µM, the TGI [10] was 17 µM and the GI50 [11] was 2.85 µM. The TGI [11] was 11.8 µM, the GI50 [12] was 2.13 µM and the TGI [12] was 5.3 µM. For the same compound, the GI50 [13] was 3.54 µM, the TGI [13] was 13.7 µM and the GI50 [14] was 2.85 µM. For the same compound, the TGI [14] was 5.72 µM, the GI50 [15] was 6.03 µM and the TGI [15] was 19.4 µM. It also gave a GI50 [16] of 1.79 µM, a TGI [16] of 7.23 µM and a GI50 [17] of 3.28 µM. For the same compound, the TGI [17] was 19.5 µM, the GI50 [18] was 1.78 µM and the TGI [18] was 3.77 µM. For the same compound, the GI50 [19] was 4.45 µM, the TGI [19] was 18.1 µM and the GI50 [20] was 3.28 µM. It also gave a TGI [20] of 11.7 µM, a GI50 [21] of 3.19 µM and a TGI [21] of 11.2 µM. It also gave a GI50 [22] of 2.11 µM, a TGI [22] of 5.11 µM and a GI50 [23] of 4.29 µM. It also gave a TGI [23] of 14.7 µM, a GI50 [24] of 2.92 µM and a TGI [24] of 8.21 µM. The GI50 [25] was 3.43 µM, the TGI [25] was 13.2 µM and the GI50 [26] was 3.9 µM. The TGI [26] was 18.8 µM, the GI50 [27] was 2.78 µM and the TGI [27] was 10.3 µM. For the same compound, the GI50 [28] was 2.89 µM, the TGI [28] was 8.21 µM and the GI50 [29] was 5.59 µM. The TGI [29] was 35.1 µM, the GI50 [30] was 3.41 µM and the TGI [30] was 15.5 µM. It also gave a GI50 [31] of 3.07 µM, a TGI [31] of 10.8 µM and a GI50 [32] of 2.37 µM. It also gave a TGI [32] of 7.5 µM, a GI50 [33] of 3 µM and a TGI [33] of 11.7 µM. The GI50 [34] was 3.34 µM, the TGI [34] was 10.8 µM and the GI50 [35] was 3.58 µM. The TGI [35] was 16.5 µM, the GI50 [36] was 6.56 µM and the TGI [36] was 20.4 µM. For the same compound, the GI50 [37] was 3.15 µM, the TGI [37] was 14.3 µM and the GI50 [38] was 2.64 µM. It also gave a TGI [38] of 12.6 µM, a GI50 [39] of 3.25 µM and a TGI [39] greater than 100 µM. The GI50 [40] was 2.57 µM, the TGI [40] was 13.8 µM and the GI50 [41] was 4.36 µM. The TGI [41] was 20.2 µM, the GI50 [42] was 2.56 µM and the TGI [42] was 11.9 µM. For the same compound, the GI50 [43] was 4.71 µM, the TGI [43] was 17.8 µM and the GI50 [44] was 3.02 µM. It also gave a TGI [44] of 7.29 µM, a GI50 [45] of 7.03 µM and a TGI [45] of 19.5 µM. It also gave a GI50 [46] of 2.08 µM, a TGI [46] of 4.88 µM and a GI50 [47] of 10.9 µM. The TGI [47] was 22.8 µM, the GI50 [48] was 2.82 µM and the TGI [48] was 14.9 µM. It also gave a GI50 [49] of 5.07 µM, a TGI [49] of 48.7 µM and a GI50 [50] of 15.4 µM. The TGI [50] was 36.4 µM, the GI50 [51] was 3.64 µM and the TGI [51] was 24 µM. It also gave a GI50 [52] of 3.43 µM, a TGI [52] of 13.9 µM and a GI50 [53] of 2.25 µM. It also gave a TGI [53] of 10.5 µM, a GI50 [54] of 3.52 µM and a TGI [54] of 11.9 µM. It also gave a GI50 [55] of 3.23 µM, a TGI [55] of 14 µM and a GI50 [56] of 3.39 µM. It also gave a TGI [56] of 13 µM, a GI50 [57] of 2.8 µM and a TGI [57] of 12.5 µM. It also gave a GI50 [58] of 3.07 µM and a TGI [58] of 13.8 µM.
